# Experimental data as given in ChEMBL document CHEMBL1121801, “Salicylamide derivatives related to medroxalol with alpha- and beta-adrenergic antagonist and antihypertension activity” (J Med Chem, 1981).
# Legend:
# Rattus norvegicus [1] = test: Compound was tested for antihypertensive activity in spontaneously hypertensive rats(SHR)at 50 mg/kg (po) dose after 1 h; type: functional
# Adrenergic receptor beta [2] = molecular target: T1, Adrenergic receptor beta (Homo sapiens, UniProt P08588+P07550+P13945); test: In vitro blocking activity against beta adrenergic receptor, isolated from guinea pig atria; type: protein assay
# [3] = molecular target: T2, Adrenergic receptor alpha-1 (Homo sapiens, UniProt P35348+P25100+P35368); test: In vitro blocking activity against alpha adrenergic receptor, isolated from rabbit aortic strip; type: protein assay, Oryctolagus cuniculus
# T2 sequence (P35348 whole entry): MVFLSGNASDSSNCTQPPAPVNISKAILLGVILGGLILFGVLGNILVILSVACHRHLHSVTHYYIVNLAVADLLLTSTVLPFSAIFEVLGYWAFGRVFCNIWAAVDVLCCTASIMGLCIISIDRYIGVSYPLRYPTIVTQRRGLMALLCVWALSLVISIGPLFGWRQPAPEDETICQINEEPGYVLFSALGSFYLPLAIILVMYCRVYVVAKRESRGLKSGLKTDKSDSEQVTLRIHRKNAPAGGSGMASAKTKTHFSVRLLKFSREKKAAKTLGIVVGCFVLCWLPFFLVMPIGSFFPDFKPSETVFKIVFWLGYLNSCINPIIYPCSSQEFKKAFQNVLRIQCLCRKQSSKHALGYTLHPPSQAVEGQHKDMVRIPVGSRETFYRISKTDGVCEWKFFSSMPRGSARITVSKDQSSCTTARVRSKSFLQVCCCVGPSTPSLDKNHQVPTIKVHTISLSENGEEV
# T2 sequence (P25100 whole entry): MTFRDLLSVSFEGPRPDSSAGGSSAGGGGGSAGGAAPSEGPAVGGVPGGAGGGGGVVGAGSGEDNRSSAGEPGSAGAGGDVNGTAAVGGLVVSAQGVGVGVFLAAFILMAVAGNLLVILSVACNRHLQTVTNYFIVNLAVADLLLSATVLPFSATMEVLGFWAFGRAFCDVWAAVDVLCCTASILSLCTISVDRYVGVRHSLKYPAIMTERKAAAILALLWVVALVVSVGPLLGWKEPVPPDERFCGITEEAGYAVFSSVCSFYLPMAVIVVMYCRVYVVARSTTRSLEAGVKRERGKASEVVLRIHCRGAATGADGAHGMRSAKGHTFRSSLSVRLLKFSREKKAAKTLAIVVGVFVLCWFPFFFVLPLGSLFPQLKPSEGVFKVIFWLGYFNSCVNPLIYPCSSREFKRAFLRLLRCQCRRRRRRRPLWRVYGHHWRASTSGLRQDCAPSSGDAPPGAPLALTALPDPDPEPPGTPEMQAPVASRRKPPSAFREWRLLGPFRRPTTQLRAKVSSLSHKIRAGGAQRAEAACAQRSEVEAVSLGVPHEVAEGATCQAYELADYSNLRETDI
# T2 sequence (P35368 whole entry): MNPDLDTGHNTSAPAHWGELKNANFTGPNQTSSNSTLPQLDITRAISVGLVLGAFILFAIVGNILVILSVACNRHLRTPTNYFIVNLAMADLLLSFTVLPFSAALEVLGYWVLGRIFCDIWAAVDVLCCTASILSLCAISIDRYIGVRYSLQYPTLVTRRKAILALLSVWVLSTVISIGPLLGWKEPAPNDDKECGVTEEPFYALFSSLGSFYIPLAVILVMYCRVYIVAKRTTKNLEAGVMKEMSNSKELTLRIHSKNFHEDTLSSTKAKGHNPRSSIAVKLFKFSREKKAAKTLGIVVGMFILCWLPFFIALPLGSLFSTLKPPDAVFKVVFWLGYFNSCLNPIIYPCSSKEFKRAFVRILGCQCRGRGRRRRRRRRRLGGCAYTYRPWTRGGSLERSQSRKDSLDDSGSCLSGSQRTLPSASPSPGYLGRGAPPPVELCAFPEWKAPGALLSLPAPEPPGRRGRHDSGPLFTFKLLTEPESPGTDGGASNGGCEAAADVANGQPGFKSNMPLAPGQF
# Rattus norvegicus [4] = test: Compound was tested for antihypertensive activity n spontaneously hypertensive rats(SHR),at 50 mg/kg (po) dose after 4 h; type: functional
# Cavia porcellus = species: Cavia porcellus; test: spasmolytic activity in isolated guinea pig ileum preparation;- log KB; (Bacl2); type: functional, organism-based; settings: read-out: pA2 (converted)
# Rattus norvegicus [5] = test: Antihypertensive activity in spontaneously hypertensive rats(SHR) at 50 mg/kg peroral dose after 1 h, expressed as decrease in systolic blood pressure; type: functional, Artery; settings: route oral
# [6] = molecular target: Beta-1 adrenergic receptor (Homo sapiens) (UniProt P08588); settings: Canis lupus familiaris;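 also: anesthetized dogs dosed intravenously, sympatholytic action measured as inhibition of the chronotropic response to isoproterenol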
# Description: In vivo sympatholytic activity (isoproterenol-induced chronotropy) at beta 1-adrenergic receptor in anesthetized dog, iv
# [7] = molecular target: Adrenergic receptor alpha (Homo sapiens) (UniProt P35348+P08913+P18825+P25100+P35368+P18089); settings: Canis lupus familiaris
# Description: In vivo sympatholytic activity (phenylephrine-induced vasopressor response) at alpha-adrenergic receptor in anesthetized dog, iv
# Oryctolagus cuniculus = species: Oryctolagus cuniculus; test: (§1) Ratio of pA2 for beta-adrenergic receptor to that of alpha-adrenergic receptor
# [8] = molecular target: Beta-2 adrenergic receptor (Canis lupus familiaris) (UniProt P54833);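 also: Beta-2 blockade of isoproterenol-induced vasodepression in anesthetized dogs, given intravenously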
# Description: In vivo sympatholytic activity (isoproterenol-induced vasodepression) at beta 2-adrenergic receptor in anesthetized dog, iv
# Rattus norvegicus [9] = test: Antihypertensive activity in spontaneously hypertensive rats(SHR) at 50 mg/kg peroral dose after 4 h, expressed as decrease in systolic blood pressure; type: functional, Artery; settings: route oral
# Adrenergic receptor beta [10] = molecular target: T1, Adrenergic receptor beta; test: as §1; type: protein assay; settings: Cavia porcellus
# [11] = molecular target: T2, Adrenergic receptor alpha-1; test: Compound was tested in vitro for Alpha adrenergic receptor blocking activity in the isolated rabbit aortic strip preparation; - log KB; parameters: species or system Oryctolagus cuniculus; settings: target entry is the homologue from another species
# Beta-2 adrenergic receptor (Canis lupus familiaris), sequence (P54833 whole entry, looked up): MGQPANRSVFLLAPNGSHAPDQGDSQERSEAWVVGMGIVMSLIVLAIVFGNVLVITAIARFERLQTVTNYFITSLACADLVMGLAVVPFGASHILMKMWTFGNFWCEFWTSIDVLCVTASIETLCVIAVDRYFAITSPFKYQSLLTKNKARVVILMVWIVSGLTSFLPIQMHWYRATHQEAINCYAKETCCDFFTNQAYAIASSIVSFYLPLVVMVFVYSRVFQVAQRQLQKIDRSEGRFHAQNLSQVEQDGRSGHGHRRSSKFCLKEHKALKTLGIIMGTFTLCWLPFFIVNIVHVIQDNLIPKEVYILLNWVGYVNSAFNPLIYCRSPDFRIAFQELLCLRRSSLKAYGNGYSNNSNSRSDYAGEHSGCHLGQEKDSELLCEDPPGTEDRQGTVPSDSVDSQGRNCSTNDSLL
# Beta-1 adrenergic receptor (Homo sapiens), sequence (P08588 whole entry, looked up): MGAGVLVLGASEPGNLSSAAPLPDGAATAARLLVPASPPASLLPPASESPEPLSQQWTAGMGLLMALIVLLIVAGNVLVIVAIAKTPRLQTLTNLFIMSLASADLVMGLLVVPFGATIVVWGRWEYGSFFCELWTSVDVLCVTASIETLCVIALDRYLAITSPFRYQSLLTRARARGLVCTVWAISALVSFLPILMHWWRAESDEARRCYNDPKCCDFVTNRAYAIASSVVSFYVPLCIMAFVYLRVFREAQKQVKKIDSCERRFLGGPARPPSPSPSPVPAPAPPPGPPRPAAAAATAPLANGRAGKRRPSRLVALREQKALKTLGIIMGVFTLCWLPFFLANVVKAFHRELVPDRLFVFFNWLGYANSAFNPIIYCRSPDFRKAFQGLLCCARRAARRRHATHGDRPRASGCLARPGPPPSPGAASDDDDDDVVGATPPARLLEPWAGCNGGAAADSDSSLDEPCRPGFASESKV
pA2 (Adrenergic receptor beta [2]),pA2 [3],DR10 [6],DR10 [7],Ratio (Oryctolagus cuniculus),DR10 [8],Ratio (Adrenergic receptor beta [10]),pA2 [11],SMILES,BP decrease (Rattus norvegicus [1]),BP decrease (Rattus norvegicus [4]),Kb (Cavia porcellus),BP decrease (Rattus norvegicus [5]),BP decrease (Rattus norvegicus [9])
4.53,< 5,–,–,–,–,–,–,CCCCCCCCCCCCNC(=O)c1cc(C(O)CNC(C)CCc2ccc3c(c2)OCO3)ccc1O.Cl (centres undefined),16 mmHg,18 mmHg,< 63100 nM,–,–
8.46,< 5.14,0.23 mg/kg,9.68 mg/kg,> 2090,1.64 mg/kg,–,–,COc1ccc(C(O)CNC(C)CCc2ccc3c(c2)OCO3)cc1C(N)=O.Cl (centres undefined),–,–,43700 nM,76 mmHg,78 mmHg
6.36,5.86,11.8 mg/kg,3.22 mg/kg,3.2,16.8 mg/kg,–,–,CCNC(=O)c1cc(C(O)CNC(C)CCc2ccc3c(c2)OCO3)ccc1O.Cl (centres undefined),–,–,1740 nM,95 mmHg,108 mmHg
5.88,5.85,22.5 mg/kg,4.84 mg/kg,–,14.8 mg/kg,1.1,–,CC(C)NC(=O)c1cc(C(O)CNC(C)CCc2ccc3c(c2)OCO3)ccc1O.Cl (centres undefined),–,–,417 nM,48 mmHg,10 mmHg
5.88,6.05,> 10 mg/kg,6.6 mg/kg,0.8,> 10 mg/kg,–,–,CC(CCc1ccc2c(c1)OCO2)NCC(O)c1ccc(O)c(C(=O)NCC(C)(C)C)c1.Cl (centres undefined),–,–,126 nM,55 mmHg,24 mmHg
–,–,–,–,–,–,–,–,Cc1ccc(N(CC2=NCCN2)c2cccc(O)c2)cc1.Cl [PHENTOLAMINE HYDROCHLORIDE],62 mmHg,60 mmHg,–,–,–
7.82,–,0.84 mg/kg,3.86 mg/kg,55,1.17 mg/kg,–,6.08,CC(CCc1ccc2c(c1)OCO2)NCC(O)c1ccc(O)c(C(N)=O)c1.Cl (centres undefined) [MEDROXALOL HYDROCHLORIDE],–,–,2340 nM,88 mmHg,90 mmHg
6.69,5.9,8.63 mg/kg,5.44 mg/kg,6.2,3.61 mg/kg,–,–,CNC(=O)c1cc(C(O)CNC(C)CCc2ccc3c(c2)OCO3)ccc1O.Cl (centres undefined),–,–,380 nM,84 mmHg,91 mmHg
7.62,5.73,2.19 mg/kg,5.82 mg/kg,78,5.46 mg/kg,–,–,COC(=O)c1cc(C(O)CNC(C)CCc2ccc3c(c2)OCO3)ccc1O.Cl (centres undefined),–,–,126 nM,56 mmHg,53 mmHg

SMILES,pA2 (Adrenergic receptor beta [2]),pA2 [3],DR10 [6],DR10 [7],Ratio (Oryctolagus cuniculus),DR10 [8],Ratio (Adrenergic receptor beta [10]),pA2 [11],BP decrease (Rattus norvegicus [1]),BP decrease (Rattus norvegicus [4]),Kb (Cavia porcellus),BP decrease (Rattus norvegicus [5]),BP decrease (Rattus norvegicus [9])
CC(Cc1ccc2c(c1)OCO2)NCC(O)c1ccc(O)c(C(N)=O)c1 (centres undefined),5.97,6.04,6.75 mg/kg,16 mg/kg,0.9,7.13 mg/kg,–,–,–,–,4570 nM,79 mmHg,73 mmHg
